Laboratory results taken from PubChem BioAssay (NCI).
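Briefly, cells in 96-well plates were exposed to five compound concentrations for 48 h, and endpoints were estimated by linear interpolation. TGI: concentration producing complete growth inhibition.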

Legend:
Assay in all cases: growth of human tumour cells (NCI), 48 h
A498 renal = system: A498 renal
A549 NSCLC = system: A549 NSCLC
ACHN renal = system: ACHN renal
BT-549 breast = system: BT-549 breast
CAKI-1 renal = system: CAKI-1 renal
CCRF-CEM leukemia = system: CCRF-CEM leukemia
DU-145 prostate = system: DU-145 prostate
EKVX NSCLC = system: EKVX NSCLC
HCC-2998 colon = system: HCC-2998 colon
HCT-116 colon = system: HCT-116 colon
HCT-15 colon = system: HCT-15 colon
HOP-62 NSCLC = system: HOP-62 NSCLC
HOP-92 NSCLC = system: HOP-92 NSCLC
HS 578T breast = system: HS 578T breast
HT29 colon = system: HT29 colon
IGROV1 ovarian = system: IGROV1 ovarian
K-562 leukemia = system: K-562 leukemia
KM12 colon = system: KM12 colon
LOX IMVI melanoma = system: LOX IMVI melanoma
M14 melanoma = system: M14 melanoma
MALME-3M melanoma = system: MALME-3M melanoma
MCF7 breast = system: MCF7 breast
MDA-MB-231 breast = system: MDA-MB-231 breast
MDA-MB-435 = system: MDA-MB-435
MDA-N = system: MDA-N
NCI-H226 lung = system: NCI-H226 lung
NCI-H23 lung = system: NCI-H23 lung
NCI-H460 lung = system: NCI-H460 lung
NCI/ADR-RES ovarian = system: NCI/ADR-RES ovarian
OVCAR-3 ovarian = system: OVCAR-3 ovarian
OVCAR-4 ovarian = system: OVCAR-4 ovarian
OVCAR-5 ovarian = system: OVCAR-5 ovarian
OVCAR-8 ovarian = system: OVCAR-8 ovarian
PC-3 prostate = system: PC-3 prostate
SF-268 CNS = system: SF-268 CNS
SF-295 CNS = system: SF-295 CNS
SF-539 CNS = system: SF-539 CNS
SK-MEL-28 melanoma = system: SK-MEL-28 melanoma
SK-MEL-5 melanoma = system: SK-MEL-5 melanoma
SK-OV-3 ovarian = system: SK-OV-3 ovarian
SN12C renal = system: SN12C renal
SNB-19 CNS = system: SNB-19 CNS
SNB-75 CNS = system: SNB-75 CNS
SW-620 colon = system: SW-620 colon
T-47D breast = system: T-47D breast
TK-10 renal = system: TK-10 renal
U251 CNS = system: U251 CNS
UACC-257 melanoma = system: UACC-257 melanoma
UACC-62 melanoma = system: UACC-62 melanoma
UO-31 renal = system: UO-31 renal
786-0 renal = system: 786-0 renal
COLO 205 colon = system: COLO 205 colon
NCI-H522 lung = system: NCI-H522 lung
RXF 393 renal = system: RXF 393 renal
SK-MEL-2 melanoma = system: SK-MEL-2 melanoma
HL-60(TB) leukemia = system: HL-60(TB) leukemia
MOLT-4 leukemia = system: MOLT-4 leukemia
RPMI-8226 leukemia = system: RPMI-8226 leukemia

Measured: TGI

COc1cc(C2c3[nH]c4ccccc4c3[C@@H](Nc3ccc(F)cc3)[C@H]3COC(=O)N23)cc(OC)c1O (some centres undefined)
2.67 µM: UO-31 renal
4.85 µM: TK-10 renal
9.08 µM: OVCAR-5 ovarian
6.5 µM: KM12 colon
2.9 µM: NCI-H226 lung
9.55 µM: M14 melanoma
5.57 µM: SN12C renal
4.07 µM: DU-145 prostate
7.01 µM: SF-268 CNS
2.48 µM: SK-MEL-5 melanoma
3.34 µM: HCC-2998 colon
7.96 µM: U251 CNS
5.35 µM: HCT-15 colon
3.17 µM: SF-539 CNS
4.6 µM: UACC-62 melanoma
9.24 µM: IGROV1 ovarian
3.22 µM: CAKI-1 renal
7.28 µM: MALME-3M melanoma
3.95 µM: SK-OV-3 ovarian
5.18 µM: NCI-H23 lung
3.69 µM: SF-295 CNS
6.08 µM: SNB-75 CNS
3.26 µM: LOX IMVI melanoma
4.28 µM: BT-549 breast
6.09 µM: OVCAR-3 ovarian
3.93 µM: CCRF-CEM leukemia
1.34 µM: ACHN renal
7.55 µM: A498 renal
> 10 µM: EKVX NSCLC | HCT-116 colon | HOP-92 NSCLC | HT29 colon | K-562 leukemia | MCF7 breast | MDA-MB-231 breast | MDA-MB-435 | MDA-N | NCI/ADR-RES ovarian | OVCAR-4 ovarian | OVCAR-8 ovarian | PC-3 prostate | SK-MEL-28 melanoma | T-47D breast | UACC-257 melanoma
3.31 µM: A549 NSCLC
7.09 µM: SNB-19 CNS
3.42 µM: HOP-62 NSCLC
4.74 µM: NCI-H460 lung
2.11 µM: HS 578T breast
5.74 µM: SW-620 colon

CC(=O)SSC1(Cl)C(C)(C)C(Cl)(SSC(C)=O)C1(C)C (centres undefined)
60.2 µM: CCRF-CEM leukemia
51.7 µM: T-47D breast
82.5 µM: SNB-75 CNS
82.9 µM: NCI-H460 lung
61.5 µM: SF-539 CNS
48.5 µM: RXF 393 renal
> 100 µM: 786-0 renal | A498 renal | A549 NSCLC | ACHN renal | BT-549 breast | CAKI-1 renal | COLO 205 colon | DU-145 prostate | EKVX NSCLC | HCT-116 colon | HCT-15 colon | HOP-62 NSCLC | HOP-92 NSCLC | HS 578T breast | HT29 colon | IGROV1 ovarian | KM12 colon | LOX IMVI melanoma | M14 melanoma | MALME-3M melanoma | MCF7 breast | MDA-MB-231 breast | MDA-MB-435 | MDA-N | NCI-H226 lung | NCI-H23 lung | NCI-H522 lung | NCI/ADR-RES ovarian | OVCAR-3 ovarian | OVCAR-4 ovarian | OVCAR-5 ovarian | OVCAR-8 ovarian | PC-3 prostate | SF-268 CNS | SF-295 CNS | SK-MEL-2 melanoma | SK-MEL-28 melanoma | SK-MEL-5 melanoma | SK-OV-3 ovarian | SN12C renal | SNB-19 CNS | SW-620 colon | TK-10 renal | U251 CNS | UACC-257 melanoma | UACC-62 melanoma | UO-31 renal

CC(=O)OC/C=C(\C)CCC(Br)C(C)(C)Br (centres undefined)
> 10 µM: 786-0 renal | A498 renal | A549 NSCLC | ACHN renal | BT-549 breast | CAKI-1 renal | CCRF-CEM leukemia | COLO 205 colon | DU-145 prostate | EKVX NSCLC | HCC-2998 colon | HCT-116 colon | HCT-15 colon | HL-60(TB) leukemia | HOP-62 NSCLC | HS 578T breast | HT29 colon | IGROV1 ovarian | K-562 leukemia | KM12 colon | LOX IMVI melanoma | M14 melanoma | MALME-3M melanoma | MCF7 breast | MDA-MB-231 breast | MDA-MB-435 | MDA-N | MOLT-4 leukemia | NCI-H226 lung | NCI-H23 lung | NCI-H460 lung | NCI-H522 lung | NCI/ADR-RES ovarian | OVCAR-3 ovarian | OVCAR-4 ovarian | OVCAR-5 ovarian | OVCAR-8 ovarian | PC-3 prostate | RPMI-8226 leukemia | RXF 393 renal | SF-268 CNS | SF-295 CNS | SF-539 CNS | SK-MEL-2 melanoma | SK-MEL-28 melanoma | SK-MEL-5 melanoma | SK-OV-3 ovarian | SN12C renal | SNB-19 CNS | SNB-75 CNS | SW-620 colon | T-47D breast | TK-10 renal | U251 CNS | UACC-257 melanoma | UACC-62 melanoma
